Legend:
A2058 melanoma xenograft = experiment: In vivo efficacy, subcutaneous melanoma xenograft, tumor volume / % TGI; design: species or system mice; conditions: for % TGI Single Agent BRAFi vs. control: A2058
Method: Next, efficacy studies were performed using the melanoma cells lines in the xenografts mouse models described above. All studies were conducted in accordance with the Guide for the Care and Use of Laboratory Animals (Ref: Institute of Laboratory Animal Resources (NIH publication no. 85-23), Washington, D.C.: National Academies Press; 1996). 10- to 14-week-old female CRL Nu/Nu or NCr nude mice from Charles River Laboratories were inoculated subcutaneously in the dorsal right flank with either 5×10^6 UACC-257X2.2 cells in HBSS with Matrigel or 5×10^6 A2058 cells in HBSS with Matrigel. When tumor volumes reached approximately 200 mm^3 (day 0), animals were randomized into groups of 10 each.
For single agent efficacy studies, the anti-ETBR ADC candidate Hu5E9v1-ADC was administered as a single intravenous (IV) injection on day 0 at 1 mpk, 3 mpk, or 6 mpk (mg/kg). A control ADC antibody and vehicle control were also administered. Average tumor volumes with standard deviations were determined from 10 animals per group. Tumor volumes were measured twice per week until study end.
The average tumor volumes were determined from 10 animals per group. Tumor volumes were measured twice per week until study end. Tumor volumes were measured in two dimensions (length and width) using UltraCal IV calipers (Model 54 10 111, Fred V. Fowler Company; Newton, Mass.). The following formula was used with Excel, version 12.2.8 (Microsoft; Redmond, Wash.) to calculate tumor volume: Tumor Volume (mm3)=[…]
To analyze the repeated measurement of tumor volumes from the same animals over time, a mixed-modeling Linear Mixed Effects (LME) approach was used (Pinheiro et al. 2009). This approach can address both repeated measurements and a modest drop-out rate due to non-treatment-related termination of animals prior to study end. Cubic regression splines were used to fit a non-linear profile to the time courses of log 2 tumor volume at each dose level. These non-linear profiles were then related to dose within the mixed model. Tumor growth inhibition (TGI) as a percentage of vehicle was calculated as percent area under the fitted curve (AUC) per day in relation to the vehicle, using the following formula:
Using this formula, a TGI value of 100% indicates tumor stasis, of >1% but <100% indicates tumor growth delay, and of >100% indicates tumor regression. To get uncertainty intervals (UIs) for % TGI, the fitted curve and the fitted covariance matrix were used to generate a random sample as an approximation to the distribution of % TGI. The random sample is composed of 1000 simulated realizations of the fitted-mixed model, where the % TGI has been recalculated for each realization. Here, in the reported UI is the value for which 95% of the time, the recalculated values of % TGI will fall in this region given the fitted model. The 2.5 and 97.5 percentiles of the simulated distribution were used as the […] UIs.
Tumors were grown to an average size of approximately 200 mm^3, whereupon animals were randomized into groups of 10 each. […] A single dose of Hu5E9v1-ADC at either 3 mpk or 6 mpk or control, a histidine buffer #8, was administered intraveneously into the tail vein on day 1 (after three doses of RG7204).
To do this, the in vivo efficacy for various combinations of Hu5E9v1-ADC and MEKi-623 and/or MEKi-973 were evaluated against A2058 and SK-MEL-23 and IPC-298 melanoma in vivo models, performed as described above in Example 4. An appropriate methylcellulose tween vehicle control (0.5% methylcellulose, 0.2% Tween-80 (MCT) or MEK inhibitor at doses of 1 mpk, 3 mpk or 7.5 mpk were administered orally once a day×21 days beginning on study Day 0. A single 3 mpk or 6 mpk dose of Hu5E9v1-ADC or control, a histidine buffer #8, was administered intraveneously (after two doses of a MEK inhibitor) via tail vein at study Day 1.

ETBR surface protein = experiment: Surface ETBR protein in live melanoma cells, FACS; type: cell-based, human; conditions: 24 h
Method: Melanoma cell lines UACC-257X2.2, A2058, COLO 829, IPC-298 (ATCC) were treated with a BRAF inhibitor drug (“BRAFi”), specifically RG7204 at varying concentrations by adding the appropriate drug volume to cells in culture for 24 h on four-well dishes.
(§1) To determine whether the observed increases in total ETBR protein level due to BRAFi treatment also results in an increase of ETBR surface protein levels, a fluorescence-activated cell sorting (FACS) analysis was performed. Cells were harvested in PBS with 2.5 mmol/L EDTA and washed in PBS buffer containing 1% FBS. All subsequent steps were carried out at 4° C. Cells were incubated for 1 hour with 3 μg/mL anti ETBR antibody Hu5E9v1, followed by anti-human IgG fluorescent detection reagent (A11013; Invitrogen). Cells were then analyzed with a FACS Calibur flow cytometer (BD Biosciences). The results for UACC-257X2.2 are shown in FIG. 4C, the results for A2058 are shown in FIG. 8C, and the results for COLO 829 are shown in FIG. 6C.
Melanoma cell lines A2058, COLO 829, SK23-MEL and IPC-298 (ATCC) were treated with a MEK inhibitor drug (“MEKi-973” or “MEKi-623”), at varying concentrations (0 μM, 0.01 μM, 0.1 μM or 1 μM) by adding the appropriate drug volume to cells in culture for 24 h on four-well dishes.
as §1, with “MEKi” for “BRAFi”, “performed as described above.” for “performed.”, “Biosciences).” for “Biosciences). The results for UACC-257X2.2 are shown in FIG. 4C, the results for A2058 are shown in FIG. 8C, and the results for COLO 829 are shown in FIG. 6C.”

Q: `CCCS(=O)(=O)Nc1ccc(F)c(C(=O)c2c[nH]c3ncc(-c4ccc(Cl)cc4)cc23)c1F` [RG7204, propane-1-sulfonic acid {3-[5-(4-chlorophenyl)-1H-pyrrolo[2,3-b]pyridine-3-carbonyl]-2,4-difluoro-phenyl}-amide] was tested. Which single agent efficacy (A2058 melanoma xenograft; 10 mg/kg RG7204 alone, orally twice a day 21 days) did it give?
A: did not show single agent efficacy

Q: And the “% TGI Single Agent BRAFi vs. control” value (A2058 melanoma xenograft; BRAFi Qdx21 10 mg/kg)?
A: 13%

Q: And the “% TGI Single Agent BRAFi vs. control” value (A2058 melanoma xenograft; BRAFi Qdx21 30 mg/kg)?
A: 38%

Q: What about the “surface level of ETBR protein vs untreated control cells” value (ETBR surface protein; A2058 cells) of the same molecule?
A: appears to increase the surface levels of ETBR protein

Q: What about the “surface level of ETBR protein vs untreated control cells” value (ETBR surface protein; COLO 829 cells) of the same molecule?
A: appears to increase the surface levels of ETBR protein

Q: And the “surface level of ETBR protein vs untreated control cells” value (ETBR surface protein; IPC-298 cells)?
A: appears to reduce ETBR levels

Q: What about the “surface level of ETBR protein vs untreated control cells” value (ETBR surface protein; UACC-257X2.2 cells) of the same molecule?
A: appears to increase the surface levels of ETBR protein
